# Target: T1, Human SGLT2 (hSGLT2) (Homo sapiens, UniProt P31639)
# T1 construct: expressed in transfected cells
# T1 sequence (P31639 1-672): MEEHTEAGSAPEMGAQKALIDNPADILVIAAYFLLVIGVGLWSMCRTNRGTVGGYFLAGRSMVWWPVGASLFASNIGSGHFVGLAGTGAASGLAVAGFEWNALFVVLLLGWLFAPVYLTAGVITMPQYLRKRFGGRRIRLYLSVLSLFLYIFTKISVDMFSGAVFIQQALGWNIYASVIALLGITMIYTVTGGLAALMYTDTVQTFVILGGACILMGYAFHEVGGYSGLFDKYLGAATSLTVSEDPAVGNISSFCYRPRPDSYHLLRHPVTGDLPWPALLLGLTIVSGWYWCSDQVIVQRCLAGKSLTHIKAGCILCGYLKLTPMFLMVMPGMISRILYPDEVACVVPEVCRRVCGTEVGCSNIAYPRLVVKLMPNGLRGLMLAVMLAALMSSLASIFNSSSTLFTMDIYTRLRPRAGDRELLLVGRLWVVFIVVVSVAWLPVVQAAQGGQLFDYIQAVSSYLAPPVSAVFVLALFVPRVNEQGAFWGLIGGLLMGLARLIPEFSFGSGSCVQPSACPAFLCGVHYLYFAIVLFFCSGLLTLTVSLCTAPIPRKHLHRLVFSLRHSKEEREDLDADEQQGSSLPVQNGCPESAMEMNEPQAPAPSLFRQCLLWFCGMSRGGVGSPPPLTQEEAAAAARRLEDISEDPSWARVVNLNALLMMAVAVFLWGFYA
# Assay: Sodium-dependent glucose transport (14C-AMG uptake) assay in CHO cells stably expressing hSGLT2
# Format: cell-based
# Settings: CHO cells expressing hSGLT2, 14C-AMG uptake, 37° C. for 2 h; single determinations; read-out: hSGLT2 Inhibitory Activity IC50
# How it was run: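 Uptake of 14C-α-methyl-D-glucopyranoside (8 μM labeled, 1 mM unlabeled, NaCl buffer pH 7.4) measured over 2 h at 37 °C with inhibitor in hSGLT2-transfected CHO cells after 10 min choline-buffer pretreatment. Radioactivity by liquid scintillation; IC50 from nonlinear regression.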
row,Compound,IC50 [nM]
1,"O[C@@H]1[C@@H](O)[C@H](c2ccc(Cl)c(Cc3ncc(-c4ccco4)s3)c2)O[C@H](CF)[C@H]1O [Example 145, (2S,3R,4R,5S,6S)-2-(4-Chloro-3-((5-(furan-2-yl)thiazol-2-yl)methyl)phenyl)-6-(fluoromethyl)-tetrahydro-2H-pyran-3,4,5-triol]",10.6
2,"OC[C@H]1O[C@@H](c2ccc(Cl)c(Cc3ncc(C4CCCC4)s3)c2)[C@H](O)[C@@H](O)[C@@H]1O [Example 19, (2S,3R,4R,5S,6R)-2-(4-Chloro-3-((5-cyclopentylthiazol-2-yl)methyl)phenyl)-6-(hydroxymethyl)-tetrahydro-2H-pyran-3,4,5-triol]",9.71
3,"OC[C@H]1O[C@@H](c2ccc(C(F)(F)F)c(Cc3ncc(-c4cccs4)s3)c2)[C@H](O)[C@@H](O)[C@@H]1O [Example 49, (2R,3S,4R,5R,6S)-2-(Hydroxymethyl)-6-(3-((5-(thiophen-2-yl)thiazol-2-yl)methyl)-4-(trifluoromethyl)phenyl)tetrahydro-2H-pyran-3,4,5-triol]",16.9
4,"OC[C@H]1O[C@@H](c2ccc(Cl)c(Cc3cnc(-c4cocn4)s3)c2)[C@H](O)[C@@H](O)[C@@H]1O [Example 191, (2S,3R,4R,5S,6R)-2-(4-Chloro-3-((2-(oxazol-4-yl)thiazol-5-yl)methyl)phenyl)-6-(hydroxymethyl)tetrahydro-2H-pyran-3,4,5-triol]",45.4
5,"COc1c(Cc2ncc(-c3ccc(F)cc3)s2)cc([C@@H]2O[C@H](CO)[C@@H](O)[C@H](O)[C@H]2O)c2ccccc12 [Example 2, (2S,3R,4R,5S,6R)-2-(3-((5-(4-Fluorophenyl)thiazol-2-yl)methyl)-4-methoxynaphthalen-1-yl)-6-(hydroxymethyl)-tetrahydro-2H-pyran-3,4,5-triol]",12
6,"C=CCc1cnc(Cc2cc([C@@H]3O[C@H](CO)[C@@H](O)[C@H](O)[C@H]3O)ccc2Cl)s1 [Example 17, (2S,3R,4R,5S,6R)-2-(3-((5-Allylthiazol-2-yl)methyl)-4-chlorophenyl)-6-(hydroxymethyl)-tetrahydro-2H-pyran-3,4,5-triol]",11.5
7,"CCCCc1cnc(Cc2cc([C@@H]3O[C@H](CO)[C@@H](O)[C@H](O)[C@H]3O)c(Cl)cc2Cl)s1 [Example 66, (2S,3R,4R,5S,6R)-2-(5-((5-Butylthiazol-2-yl)methyl)-2,4-dichlorophenyl)-6-(hydroxymethyl)tetrahydro-2H-pyran-3,4,5-triol]",60.5
8,"OC[C@H]1O[C@]2(OCc3cc(Cl)c(C4(c5ncc(-c6cccs6)s5)CC4)cc32)[C@H](O)[C@@H](O)[C@@H]1O [Example 129, (1S,3′R,4′S,5′S,6′R)-5-Chloro-6′-(hydroxymethyl)-6-(1-(5-(thiophen-2-yl)thiazole-2-yl)cyclopropyl)-3′,4′,5′,6′-tetrahydro-3H-spiro[isobenzofuran-1,2′-pyran]-3′,4′,5′-triol]",160
9,"OC[C@H]1O[C@@H](c2ccc(Cl)c(Cc3ncc(-c4ccc(Cl)s4)s3)c2)[C@H](O)[C@@H](O)[C@@H]1O [Example 8, (2S,3R,4R,5S,6R)-2-(4-Chloro-3-((5-(5-chlorothiophen-2-yl)thiazol-2-yl)methyl)phenyl)-6-(hydroxymethyl)tetrahydro-2H-pyran-3,4,5-triol]",13.3
10,"OC[C@H]1O[C@@H](c2cc(Cc3ncc(-c4cccs4)s3)cc3ccccc23)[C@H](O)[C@@H](O)[C@@H]1O [Example 94, (2R,3S,4R,5R,6S)-2-(Hydroxymethyl)-6-(3-((5-(thiophen-2-yl)thiazol-2-yl)methyl)naphthalen-1-yl)tetrahydro-2H-pyran-3,4,5-triol]",5.98
11,"CCc1cnc(Cc2cn([C@@H]3O[C@H](CO)[C@@H](O)[C@H](O)[C@H]3O)c3ccccc23)s1 [Example 133, (2R,3R,4S,5S,6R)-2-(3-((5-Ethylthiazol-2-yl)methyl)-1H-indol-1-yl)-6-(hydroxymethyl)tetrahydro-2H-pyran-3,4,5-triol]",180
12,"OC[C@H]1O[C@@H](c2ccc(Cl)c(Cc3cnc(-c4ccc(F)cc4)s3)c2)[C@H](O)[C@@H](O)[C@@H]1O [Example 194, (2S,3R,4R,5S,6R)-2-(4-Chloro-3-((2-(4-fluorophenyl)thiazol-5-yl)methyl)phenyl)-6-(hydroxymethyl)tetrahydro-2H-pyran-3,4,5-triol]",6.39
13,"CCCCSc1cnc(Cc2cc([C@@H]3O[C@H](CO)[C@@H](O)[C@H](O)[C@H]3O)ccc2Cl)s1 [Example 26, (2S,3R,4R,5S,6R)-2-(3-((5-(Butylthio)thiazol-2-yl)methyl)-4-chlorophenyl)-6-(hydroxymethyl)-tetrahydro-2H-pyran-3,4,5-triol]",58.7
14,"C=CCOC(=O)OC[C@H]1O[C@@H](c2ccc(Cl)c(Cc3ncc(-c4ccco4)s3)c2)[C@H](O)[C@@H](O)[C@@H]1O [Example 163, Allyl ((2R,3S,4R,5R,6S)-6-(4-chloro-3-((5-(furan-2-yl)thiazol-2-yl)methyl)phenyl)-3,4,5-trihydroxytetrahydro-2H-pyran-2-yl)methyl carbonate]",11.4
15,"OC[C@H]1O[C@@H](c2cc(Cc3ncc(-c4cccs4)s3)c(O)c3ccccc23)[C@H](O)[C@@H](O)[C@@H]1O [Example 124, (2S,3R,4R,5S,6R)-2-(4-Hydroxy-3-((5-(thiophen-2-yl)thiazol-2-yl)methyl)naphthalen-1-yl)-6-(hydroxymethyl)-tetrahydro-2H-pyran-3,4,5-triol]",7.97

# Now those with a lower IC50, led by results:
row,IC50 [nM],Compound
1,4.77,"OC[C@H]1O[C@@H](c2cc(Cc3ncc(-c4cccs4)s3)c(Cl)cc2Cl)[C@H](O)[C@@H](O)[C@@H]1O [Example 61, (2S,3R,4R,5S,6R)-2-(2,4-Dichloro-5-((5-(thiophen-2-yl)thiazol-2-yl)methyl)phenyl)-6-(hydroxymethyl)tetrahydro-2H-pyran-3,4,5-triol]"
2,5.55,"COCCOc1cc(Cl)c(Cc2ncc(-c3ccco3)s2)cc1[C@@H]1O[C@H](CO)[C@@H](O)[C@H](O)[C@H]1O [Example 117, (2S,3R,4R,5S,6R)-2-(4-Chloro-5-((5-(furan-2-yl)thiazol-2-yl)methyl)-2-(2-methoxyethoxy)phenyl)-6-(hydroxymethyl)-tetrahydro-2H-pyran-3,4,5-triol]"
3,1.28,"Cc1ccc([C@@H]2O[C@H](CO)[C@@H](O)[C@H](O)[C@H]2O)cc1Cc1ncc(-c2ccsc2)s1 [Example 33, (2R,3S,4R,5R,6S)-2-(Hydroxymethyl)-6-(4-methyl-3-((5-(thiophen-3-yl)thiazol-2-yl)methyl)phenyl)tetrahydro-2H-pyran-3,4,5-triol]"
4,1.43,"Cc1ccc([C@@H]2O[C@H](CO)[C@@H](O)[C@H](O)[C@H]2O)cc1Cc1ncc(-c2ccco2)s1 [Example 30, (2S,3R,4R,5S,6R)-2-(3-((5-(Furan-2-yl)thiazol-2-yl)methyl)-4-methylphenyl)-6-(hydroxymethyl)tetrahydro-2H-pyran-3,4,5-triol]"
5,2.79,"OC[C@H]1O[C@@H](c2ccc(Cl)c(Cc3cnc(-c4cccs4)s3)c2)[C@H](O)[C@@H](O)[C@@H]1O [Example 187, (2S,3R,4R,5S,6R)-2-(4-Chloro-3-((2-(thiophen-2-yl)thiazol-5-yl)methyl)phenyl)-6-(hydroxymethyl)tetrahydro-2H-pyran-3,4,5-triol]"
6,4.48,"CCCCCCc1cnc(Cc2cc([C@@H]3O[C@H](CO)[C@@H](O)[C@H](O)[C@H]3O)c(OC)cc2Cl)s1 [Example 75, (2S,3R,4R,5S,6R)-2-(4-Chloro-5-((5-hexylthiazol-2-yl)methyl)-2-methoxyphenyl)-6-(hydroxymethyl)tetrahydro-2H-pyran-3,4,5-triol]"
7,1.18,"(2S,3R,4R,5S,6R)-2-(4-Chloro-2-ethoxy-5-((5-(thiophen-3-yl)thiazol-2-yl)methyl)phenyl)-6-(hydroxymethyl)tetrahydro-2H-pyran-3,4,5-triol [Example 80]"
8,2.44,"O=C(OCc1ccccc1)OC[C@H]1O[C@@H](c2ccc(Cl)c(Cc3ncc(-c4ccco4)s3)c2)[C@H](O)[C@@H](O)[C@@H]1O [Example 164, Benzyl ((2R,3S,4R,5R,6S)-6-(4-chloro-3-((5-(furan-2-yl)thiazol-2-yl)methyl)phenyl)-3,4,5-trihydroxytetrahydro-2H-pyran-2-yl)methyl carbonate]"
9,2,"OC[C@H]1O[C@@H](c2ccc(Cl)c(Cc3ncc(-c4ccsc4)s3)c2)[C@H](O)[C@@H](O)[C@@H]1O [Example 1, (2S,3R,4R,5S,6R)-2-(4-Chloro-3-((5-(thiophen-3-yl)thiazol-2-yl)methyl)phenyl)-6-(hydroxymethyl)-tetrahydro-2H-pyran-3,4,5-triol]"
10,1.51,"OCCOc1cc(Cl)c(Cc2ncc(-c3ccco3)s2)cc1[C@@H]1O[C@H](CO)[C@@H](O)[C@H](O)[C@H]1O [Example 121, (2S,3R,4R,5S,6R)-2-(4-Chloro-5-((5-(furan-2-yl)thiazol-2-yl)methyl)-2-(2-hydroxyethoxy)phenyl)-6-(hydroxymethyl)tetrahydro-2H-pyran-3,4,5-triol]"

# From patent publication US8586550B2, “Thiazole derivatives as SGLT2 inhibitors and pharmaceutical composition comprising same” (Green Cross Corporation, priority 2010, dated 2013)
